Experiments:
[1] = Liquid, Ebulliometric method (Recirculating still)
[2] = refractive index (Na D-line) (dimensionless); settings: Liquid, Standard Abbe refractometry
[3] = refractive index (Na D-line) (dimensionless); xn = mol fraction of the nth substance listed; settings: 293.15 K, 93 kPa, Liquid, Standard Abbe refractometry

CC(=O)OC(C)C [1-methylethyl ethanoate]
Settings	vapor or sublimation pressure [kPa]
[1], 358.92 K	93.13

[2]
Settings	refractive index
293.15 K, 93 kPa	1.3774
298.15 K, 101.33 kPa	1.3748

CC(=O)OC(C)C [1-methylethyl ethanoate] + COC(=O)OC
[3]
Settings	refractive index
x1 = 0.0423	1.3693
x1 = 0.0899	1.3699
x1 = 0.183	1.371
x1 = 0.2918	1.3721
x1 = 0.4235	1.3733
x1 = 0.5026	1.374
x1 = 0.5726	1.3746
x1 = 0.6814	1.3754
x1 = 0.7285	1.3758
x1 = 0.7616	1.3759
x1 = 0.7915	1.3761
x1 = 0.8849	1.3767
x1 = 0.9449	1.3771
x1 = 1	1.3774

CC(=O)OCCC(C)C [3-methylbutyl ethanoate]
Settings	vapor or sublimation pressure [kPa]
[1], 412.31 K	93.13

[2]
Settings	refractive index
293.15 K, 93 kPa	1.4007
298.15 K, 101.33 kPa	1.39842

CC(=O)OCCC(C)C [3-methylbutyl ethanoate] + COC(=O)OC
[3]
Settings	refractive index
x1 = 0.0369	1.3706
x1 = 0.0721	1.3724
x1 = 0.2004	1.378
x1 = 0.2231	1.3788
x1 = 0.3091	1.3821
x1 = 0.4027	1.3854
x1 = 0.4943	1.3883
x1 = 0.6064	1.3915
x1 = 0.7185	1.3945
x1 = 0.8312	1.3972
x1 = 0.9243	1.3992
x1 = 1	1.4007

CCCCOC(C)=O [butyl ethanoate]
Settings	vapor or sublimation pressure [kPa]
[1], 396.21 K	93.13

[2]
Settings	refractive index
293.15 K, 93 kPa	1.3943
298.15 K, 101.33 kPa	1.39175

CCCCOC(C)=O [butyl ethanoate] + COC(=O)OC
[3]
Settings	refractive index
x1 = 0.0941	1.3721
x1 = 0.1143	1.3728
x1 = 0.1628	1.3743
x1 = 0.2495	1.377
x1 = 0.3203	1.379
x1 = 0.4375	1.3821
x1 = 0.5357	1.3846
x1 = 0.6438	1.3871
x1 = 0.7325	1.389
x1 = 0.7418	1.3893
x1 = 0.8819	1.3921
x1 = 0.9073	1.3925
x1 = 1	1.3943

COC(=O)OC [dimethyl carbonate] + CC(=O)OC(C)C
Settings	refractive index
[3], x2 = 0	1.3688

COC(=O)OC [dimethyl carbonate] + CC(=O)OCCC(C)C
Settings	refractive index
[3], x2 = 0	1.3688

COC(=O)OC [dimethyl carbonate] + CCCCOC(C)=O
Settings	refractive index
[3], x2 = 0	1.3688

COC(=O)OC [dimethyl carbonate] + CCCOC(C)=O
Settings	refractive index
[3], x2 = 0	1.3688

COC(=O)OC [dimethyl carbonate] + CCOC(C)=O
[3]
Settings	refractive index
x2 = 0	1.3688
x2 = 0.0861	1.3693
x2 = 0.1154	1.3694
x2 = 0.2095	1.3698
x2 = 0.3017	1.3702
x2 = 0.3685	1.3704
x2 = 0.3952	1.3705
x2 = 0.4303	1.3707
x2 = 0.5094	1.371
x2 = 0.5642	1.3712
x2 = 0.6047	1.3713
x2 = 0.6964	1.3716
x2 = 0.8026	1.3719
x2 = 0.8912	1.3722
x2 = 0.9375	1.3723

COC(=O)OC [dimethyl carbonate] + COC(C)=O
Settings	refractive index
[3], x2 = 0	1.3688

CCOC(C)=O [ethyl acetate] + COC(=O)OC
Settings	refractive index
[3], x1 = 1	1.3724

COC(C)=O [methyl ethanoate] + COC(=O)OC
[3]
Settings	refractive index
x1 = 0.0985	1.3682
x1 = 0.1427	1.3679
x1 = 0.2469	1.3673
x1 = 0.3243	1.3668
x1 = 0.3794	1.3665
x1 = 0.445	1.366
x1 = 0.5283	1.3654
x1 = 0.6548	1.3645
x1 = 0.7403	1.3639
x1 = 0.7976	1.3634
x1 = 0.8939	1.3625
x1 = 0.9548	1.362
x1 = 1	1.3615

CCCOC(C)=O [propyl ethanoate] + COC(=O)OC
[3]
Settings	refractive index
x1 = 0.0846	1.3704
x1 = 0.1341	1.3714
x1 = 0.1705	1.372
x1 = 0.223	1.3731
x1 = 0.2896	1.3741
x1 = 0.3877	1.3757
x1 = 0.4374	1.3765
x1 = 0.4989	1.3775
x1 = 0.562	1.3784
x1 = 0.669	1.38
x1 = 0.7756	1.3815
x1 = 0.891	1.383
x1 = 0.9528	1.3838
x1 = 1	1.3843
